Laboratory results reported in patent US10954269B2, “Anti-inflammatory tripeptides” (Dr. August Wolff Gmbh & Co. KG Arzneimittel, priority 2013, dated 2021).
[ ]: non-standard residue; d: D form. Aib = CC(C)(N)C(=O)O

Legend:
[1] = system: human keratinocyte cell line (HaCaT); assay: Cytokine secretion on protein level in activated human keratinocyte cell line HaCaT (13-plex FACS / Luminex, supernatant); format: cell-based
Outline: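 Stimulus: PMA/Ionomycin or IFN-γ, 48 h; cells: HaCaT or human peripheral-blood T-cells; tripeptide treatment; readout: supernatant cytokines via 13-plex FACS or Luminex, 48–72 h post-stimulation.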

[2] = system: C57BL/6 mice; assay: DSS-induced colitis in mice; format: in vivo; conditions: i.p.
Protocol: Colitis is induced by treatment of C57BL/6 mice with 2.5% dextran sulfate (DSS) in the drinking water for 7 days. Mice are treated with the test item. Weight is monitored daily. At day 8 mice are scarified. A haemocult test is performed. The size of the colon is measured. Colitis is determined using a scoring system in H&E stains. mRNA expression in colon samples is analyzed by RT-qPCR.

[3] = system: primary human T cells; assay: Gene expression of pro-inflammatory cytokines (RT-qPCR) in primary human T cells; format: cell-based; conditions: RT-qPCR
Text: (§1) Cells were activated with PMA/Ionomycin and treated with PBS, α-MSH, K(D)PT and Examples 3, 8 and 9, respectively, at a concentration of 10^−9 M. Values are normalized to β-actin and are shown relative to the gene expression in PBS-stimulated cells.
(§2) Primary T-cells were isolated from peripheral blood from healthy volunteers and from secondary lymphatic organs from naïve C57BL/6 mice, respectively. The cells were stimulated with phorbol-12-myristate-13-acetate (PMA)/Ionomycin and interferon-gamma (IFN-γ), respectively, for 48 h to activate the cells. The activated cells release pro-inflammatory cytokines. In parallel a human (HaCaT) keratinocyte cell line was activated with PMA/Ionomycin and IFN-γ, respectively, too. […] At the same time release of anti-inflammatory IL-10 was inhibited. Two days after addition of PMA/Ionomycin and IFN-γ, respectively, the induction of IL-1 secretion was determined in the supernatant for proving that the cells are activated. […] The anti-inflammatory properties of the tripeptides were determined 48 h and 72 h following stimulation. A 13-plex-system based FACS analysis was used for showing the reduced secretion of pro-inflammatory cytokines in the supernatant. Data for IL-1, IL-2, IL-6, IL-12p70 IL-17, IFN-γ and TNF-α are considered to be most relevant. Thus, analysis of the anti-inflammatory properties of the tripeptides is preferably based on the results obtained for these analytes. […] Using this method the gene expression of pro-inflammatory markers like IL-6, IL-17, IFN-γ and TNF-α was determined.
(§3) In a third experiment murine and human T cells and HaCaT cells were stimulated with PMA/Ionomycin and treated with Examples 14, 15, 16 and 17 at 10^−7 M, 10^−9 M and 10^−11 M. Cytokine concentrations (IFN-γ, IL-17 and IL-10 for T cells and IFN-γ for HaCat) were assessed in the supernatants using the Luminex technology. Expression of genes coding for Il-1β, IL-6 and TNF-α was determined. […] Moreover, concentrations of pro-inflammatory cytokines IFN-γ and IL-17 was reduced in the supernatants whereas the concentration of anti-inflammatory cytokine IL-10 was increased.

[4] = system: human keratinocytes (HaCaT); assay: Gene expression of pro-inflammatory cytokines (RT-qPCR) in human keratinocytes (HaCaT); format: cell-based; conditions: HaCaT keratinocytes; RT-qPCR
Text: as §1, §2, §3

[5] = system: C57BL/6 mice; assay: Vasculitis model in mice (LPS / TNF-α intradermal); format: in vivo; conditions: s.c.
Protocol: C57BL/6 mice receive an intradermal injection of LPS. On the following day vasculitis is induced by intradermal injection of TNF-α. In addition Evan's blue is injected. 24 hours following the injection of TNF-α mice are scarified. Ear thickness is measured and the degree of vasculitis is assessed by counting petechiae. The content of Evan's blue in the ear tissue is a marker for vascular permeability. Ears are analyzed by histology, FACS and RT-qPCR. […] In histology a reduced inflammatory infiltrate was seen.

[6] = HaCaT stimulated with IFN-γ, substance 10^−9M
[7] = HaCaT stimulated with PBS, substance 10^−9M
[8] = HaCaT stimulated with PMA/Ionomycin, substance 10^−9M
[9] = HaCaT stimulated with IFN-γ, 10^−9M
[10] = HaCaT stimulated with IFN-γ, 10^−9M, excluded from the final assessment
[11] = HaCaT stimulated with PBS, 10^−9M
[12] = HaCaT stimulated with PBS, 10^−9M, excluded from the final assessment
[13] = HaCaT stimulated with PMA/Ionomycin, 10^−9M
[14] = HaCaT stimulated with PMA/Ionomycin, 10^−9M, excluded from the final assessment

H-Phe-Pro-[Aib]-OH [Example 13]
IL-1 cytokine concentration [1, 6]: 0 pg/mL
IL-2 cytokine concentration [1, 6]: 0 pg/mL
IL-4 cytokine concentration [1, 6]: 76.13 pg/mL
IL-5 cytokine concentration [1, 6]: 0 pg/mL
IL-6 cytokine concentration [1, 6]: 255.5 pg/mL
IL-9 cytokine concentration [1, 6]: 0 pg/mL
IL-10 cytokine concentration [1, 6]: 7.59 pg/mL
IL-12p70 cytokine concentration [1, 6]: 0 pg/mL
IL-13 cytokine concentration [1, 6]: 0 pg/mL
IL-17 cytokine concentration [1, 6]: 34.2 pg/mL
IL-22 cytokine concentration [1, 6]: 0 pg/mL
TNF-α cytokine concentration [1, 6]: 0 pg/mL
IFN-γ cytokine concentration [1, 7]: 0 pg/mL
IL-1 cytokine concentration [1, 7]: 17.16 pg/mL
IL-2 cytokine concentration [1, 7]: 14.24 pg/mL
IL-4 cytokine concentration [1, 7]: 132.37 pg/mL
IL-5 cytokine concentration [1, 7]: 0 pg/mL
IL-6 cytokine concentration [1, 7]: 74.11 pg/mL
IL-9 cytokine concentration [1, 7]: 0 pg/mL
IL-10 cytokine concentration [1, 7]: 74.67 pg/mL
IL-12p70 cytokine concentration [1, 7]: 0 pg/mL
IL-13 cytokine concentration [1, 7]: 1948.04 pg/mL
IL-17 cytokine concentration [1, 7]: 0 pg/mL
IL-22 cytokine concentration [1, 7]: 0 pg/mL
TNF-α cytokine concentration [1, 7]: 6.94 pg/mL
IFN-γ cytokine concentration [1, 8]: 0 pg/mL
IL-1 cytokine concentration [1, 8]: 0 pg/mL
IL-2 cytokine concentration [1, 8]: 0 pg/mL
IL-4 cytokine concentration [1, 8]: 91.99 pg/mL
IL-5 cytokine concentration [1, 8]: 0 pg/mL
IL-6 cytokine concentration [1, 8]: 216.69 pg/mL
IL-9 cytokine concentration [1, 8]: 0 pg/mL
IL-10 cytokine concentration [1, 8]: 41.86 pg/mL
IL-12p70 cytokine concentration [1, 8]: 0 pg/mL
IL-13 cytokine concentration [1, 8]: 0 pg/mL
IL-17 cytokine concentration [1, 8]: 21.33 pg/mL
IL-22 cytokine concentration [1, 8]: 0 pg/mL
TNF-α cytokine concentration [1, 8]: 0 pg/mL
secretion / expression of pro-inflammatory cytokines (supernatant) ([1]; activated human keratinocytes): decreased expression
colon size [2]: partly normalized
disease in histology [2]: amelioration
mRNA expression of LY-6G, MPO, IFN-γ, IL-6 and TNF-α (colon) ([2]; compared to vehicle control): reduced
weight loss ([2]; compared to vehicle control): decreased
mRNA expression of IL-6, IL-17, IFN-γ and TNF-α [3]: reduced expression
gene expression of pro-inflammatory cytokines [4]: reduced expression
ear thickness [5]: reduction
inflammatory infiltrate in histology [5]: reduced
number of petechiae [5]: reduced number

H-Lys-[dP]-Thr-OH [K(D)PT, reference compound]
IL-1 cytokine concentration [1, 9]: 257.77 pg/mL
IL-2 cytokine concentration [1, 9]: 129.65 pg/mL
IL-4 cytokine concentration [1, 9]: 84.61 pg/mL
IL-5 cytokine concentration [1, 9]: 166.92 pg/mL
IL-6 cytokine concentration [1, 9]: 728.31 pg/mL
IL-9 cytokine concentration [1, 9]: 83.09 pg/mL
IL-10 cytokine concentration [1, 9]: 73.19 pg/mL
IL-13 cytokine concentration [1, 9]: 59.62 pg/mL
IL-17 cytokine concentration [1, 9]: 664.43 pg/mL
TNF-α cytokine concentration [1, 9]: 100.07 pg/mL
IL-12p70 cytokine concentration [1, 10]: 0 pg/mL
IL-22 cytokine concentration [1, 10]: 0 pg/mL
IL-1 cytokine concentration [1, 6]: 0 pg/mL
IL-2 cytokine concentration [1, 6]: 131.59 pg/mL
IL-4 cytokine concentration [1, 6]: 52.4 pg/mL
IL-5 cytokine concentration [1, 6]: 0 pg/mL
IL-6 cytokine concentration [1, 6]: 238.12 pg/mL
IL-9 cytokine concentration [1, 6]: 0 pg/mL
IL-10 cytokine concentration [1, 6]: 0 pg/mL
IL-12 cytokine concentration [1, 6]: 0 pg/mL
IL-12p70 cytokine concentration [1, 6]: 0 pg/mL
IL-13 cytokine concentration [1, 6]: 0 pg/mL
IL-17 cytokine concentration [1, 6]: 112.82 pg/mL
IL-22 cytokine concentration [1, 6]: 0 pg/mL
TNF-α cytokine concentration [1, 6]: 50.44 pg/mL
IFN-γ cytokine concentration [1, 11]: 395.55 pg/mL
IL-1 cytokine concentration [1, 11]: 228.99 pg/mL
IL-2 cytokine concentration [1, 11]: 201.9 pg/mL
IL-4 cytokine concentration [1, 11]: 85.48 pg/mL
IL-5 cytokine concentration [1, 11]: 201.01 pg/mL
IL-6 cytokine concentration [1, 11]: 72.95 pg/mL
IL-9 cytokine concentration [1, 11]: 132.74 pg/mL
IL-10 cytokine concentration [1, 11]: 125.52 pg/mL
IL-13 cytokine concentration [1, 11]: 60.72 pg/mL
IL-17 cytokine concentration [1, 11]: 618.22 pg/mL
TNF-α cytokine concentration [1, 11]: 90.41 pg/mL
IL-12p70 cytokine concentration [1, 12]: 0 pg/mL
IL-22 cytokine concentration [1, 12]: 10982.2 pg/mL
IFN-γ cytokine concentration [1, 7]: 99.65 pg/mL
IL-1 cytokine concentration [1, 7]: 65.11 pg/mL
IL-2 cytokine concentration [1, 7]: 0 pg/mL
IL-4 cytokine concentration [1, 7]: 144.86 pg/mL
IL-5 cytokine concentration [1, 7]: 0 pg/mL
IL-6 cytokine concentration [1, 7]: 78.34 pg/mL
IL-9 cytokine concentration [1, 7]: 5.27 pg/mL
IL-10 cytokine concentration [1, 7]: 31.43 pg/mL
IL-12 cytokine concentration [1, 7]: 0 pg/mL
IL-12p70 cytokine concentration [1, 7]: 0 pg/mL
IL-13 cytokine concentration [1, 7]: 0 pg/mL
IL-17 cytokine concentration [1, 7]: 0 pg/mL
IL-22 cytokine concentration [1, 7]: 0 pg/mL
TNF-α cytokine concentration [1, 7]: 9.34 pg/mL
IFN-γ cytokine concentration [1, 13]: 736.13 pg/mL
IL-1 cytokine concentration [1, 13]: 212.49 pg/mL
IL-2 cytokine concentration [1, 13]: 179.25 pg/mL
IL-4 cytokine concentration [1, 13]: 70.92 pg/mL
IL-5 cytokine concentration [1, 13]: 157.36 pg/mL
IL-6 cytokine concentration [1, 13]: 130.87 pg/mL
IL-9 cytokine concentration [1, 13]: 147.79 pg/mL
IL-10 cytokine concentration [1, 13]: 84.32 pg/mL
IL-13 cytokine concentration [1, 13]: 62.95 pg/mL
IL-17 cytokine concentration [1, 13]: 487.56 pg/mL
TNF-α cytokine concentration [1, 13]: 116.88 pg/mL
IL-12p70 cytokine concentration [1, 14]: 0 pg/mL
IL-22 cytokine concentration [1, 14]: 10698.1 pg/mL
IFN-γ cytokine concentration [1, 8]: 0 pg/mL
IL-1 cytokine concentration [1, 8]: 0 pg/mL
IL-2 cytokine concentration [1, 8]: 0 pg/mL
IL-4 cytokine concentration [1, 8]: 129.6 pg/mL
IL-5 cytokine concentration [1, 8]: 0 pg/mL
IL-6 cytokine concentration [1, 8]: 282.85 pg/mL
IL-9 cytokine concentration [1, 8]: 0 pg/mL
IL-10 cytokine concentration [1, 8]: 118.77 pg/mL
IL-12 cytokine concentration [1, 8]: 0 pg/mL
IL-12p70 cytokine concentration [1, 8]: 0 pg/mL
IL-13 cytokine concentration [1, 8]: 0 pg/mL
IL-17 cytokine concentration [1, 8]: 0 pg/mL
IL-22 cytokine concentration [1, 8]: 0 pg/mL
TNF-α cytokine concentration [1, 8]: 0 pg/mL
